# Results taken from patent publication US5026836A, “6-sulfenamide, 6-sulfinamide and 6-sulfonamide purines, purine nucleosides, purine nucleotides, pharmaceutical compositions, and processes of making” (priority 1988, dated 1991).
# What was measured:
# [1] = system: Human Colon Adenocarcinoma CX-1; experiment: Human Colon Adenocarcinoma CX-1 tumor weight in nu/nu mice; type: in vivo; settings: for Tumor wt, staging day (mean ± 1SD): before treatment (day 33 post implant); for δT/δC: ≤20% active
# Procedure: In this example Compound 19 was tested against reticulum cell sarcoma M5076. For this and certain other tests below, test results are shown as δT/δC. Utilizing this protocol the difference in tumor weight before treatment and after treatment of the treated animals compared to the control animals is determined.
# Compound 19 was further tested against Human Colon Adenocarcinoma CX-1. Activity against this tumor system is indicated at a δT/δC value of less than 20.
# [2] = system: human lung carcinoma LX-1; experiment: Activity against human lung carcinoma LX-1; settings: in vivo
# [3] = system: L1210/6MP, 6TG, 6TGR cells; experiment: L1210/6MP, 6TG, 6TGR cells surviving treatment; type: in vivo, mouse; settings: for RCP (Residual Cell Population): L1210/6MP,6TG
# Procedure: In Example G Compound 19 was tested against both L1210 cells and L1210 cells which were resistant to 6-Mercaptopurine, 6-Thioguanine and 6-Thioguanosine. […] As was noted above, drugs in the 6-Mercaptopurine family are presently among the drugs of choice for treatment of leukemia.
# B-16 melanoma = experiment: Activity against B-16 melanoma; settings: in vivo
# L1210 cells = L1210 cells surviving treatment (% of original inoculum); type: in vivo, mouse
# From the text: Values below 25% are considered capable of producing effective therapy, those below 10% are considered good and those below 5% are considered very good. This expresses the percent of the cells which survived treatment based upon the original cells in the inoculum. Those tests expressed as increases in life span (% ILS) indicate the increased life span of the drug treated group compared to a control group.
# As an indicator of reproducible activity, compounds of the invention and other known cancer chemotherapeutic agents were screened against L1210 lymphoid leukemia in vivo utilizing the mouse as a test species. Normal NCI protocols for this test require 10^5 seed cells of the L1210 cell line. However for the purposes of tests with the L1210 cell line in testing the compounds of the invention for antitumor activity, a log greater, i.e. 10^6 cells were utilized.
# Tables 2-a and 2-b illustrate a dose response for Compound 19 against L1210 inoculated mice expressed as both increased life span compared to control and as the number of cells of the original inoculum surviving drug treatment. As is evident from the various regimens of drug treatment shown in Tables 2-a and 2-b, effective therapeutic effects are noted and a dose response to Compound 19 is evident. […] Cytosine Arabinoside must be given every three hours. Test results are given utilizing standard protocols based on mean survival time and are expressed as T/C percentages (treated animals/control animals).
# [4] = day 12, ip 138.4 mg/kg/inj, qd days 1,3,5,7,9
# [5] = day 12, ip 138.4 mg/kg/inj, qd days 1,4,7,10,13,16
# [6] = day 12, ip 173.0 mg/kg/inj, qd days 1,3,5,7
# [7] = day 15, ip 138.4 mg/kg/inj, qd days 1,3,5,7,9,11
# [8] = day 15, ip 138.4 mg/kg/inj, qd days 1,4,7,10,13
# [9] = day 16, ip 173.0 mg/kg/inj, qd days 1,3,5,7,9
# [10] = day 16, ip 173.0 mg/kg/inj, qd days 1,4,7,10
# [11] = day 17, ip 173.0 mg/kg/inj, qd days 1,4,7,10,13
compound,measurement,setting,value
"Nc1nc([S+](N)[O-])c2ncn([C@@H]3O[C@H](CO)[C@@H](O)[C@H]3O)c2n1 (mixture of isomers) [Compound 19, 2-amino-9-β-D-ribofuranosyl-9H-purine-6-sulfinamide]","Tumor wt, staging day (mean ± 1SD)","[1]; ip 138.4 mg/kg/inj group, qd days 1,3,5,7,9",226 mg
same,"Tumor wt, staging day (mean ± 1SD)","[1]; ip 138.4 mg/kg/inj group, qd days 1,3,5,7,9,11",220 mg
same,"Tumor wt, staging day (mean ± 1SD)","[1]; ip 138.4 mg/kg/inj group, qd days 1,4,7,10,13",225 mg
same,"Tumor wt, staging day (mean ± 1SD)","[1]; ip 138.4 mg/kg/inj group, qd days 1,4,7,10,13,16",215 mg
same,"Tumor wt, staging day (mean ± 1SD)","[1]; ip 173.0 mg/kg/inj group, qd days 1,3,5,7",222 mg
same,"Tumor wt, staging day (mean ± 1SD)","[1]; ip 173.0 mg/kg/inj group, qd days 1,3,5,7,9",229 mg
same,"Tumor wt, staging day (mean ± 1SD)","[1]; ip 173.0 mg/kg/inj group, qd days 1,4,7,10",226 mg
same,"Tumor wt, staging day (mean ± 1SD)","[1]; ip 173.0 mg/kg/inj group, qd days 1,4,7,10,13",226 mg
same,"Tumor wt, evaluation day (mean ± 1SD)",[1]; [4],278 ± 114 mg
same,δT/δC,[1]; [4],25.0%
same,"Tumor wt, evaluation day (mean ± 1SD)",[1]; [5],296 ± 186 mg
same,δT/δC,[1]; [5],38.9%
same,"Tumor wt, evaluation day (mean ± 1SD)",[1]; [6],302 ± 144 mg
same,δT/δC,[1]; [6],38.5%
same,"Tumor wt, evaluation day (mean ± 1SD)",[1]; [7],358 ± 125 mg
same,δT/δC,[1]; [7],46.6%
same,"Tumor wt, evaluation day (mean ± 1SD)",[1]; [8],375 ± 155 mg
same,δT/δC,[1]; [8],50.7%
same,"Tumor wt, evaluation day (mean ± 1SD)",[1]; [9],364 ± 254 mg
same,δT/δC,[1]; [9],39.9%
same,"Tumor wt, evaluation day (mean ± 1SD)",[1]; [10],402 ± 187 mg
same,δT/δC,[1]; [10],52.1%
same,"Tumor wt, evaluation day (mean ± 1SD)",[1]; [11],279 ± 121 mg
same,δT/δC,[1]; [11],15.8%
same,activity against human lung carcinoma LX-1,[2],No activity
same,RCP (Residual Cell Population),"[3]; ip 37 mg/kg/inj, bid days 1,3,5,7",.28
same,RCP (Residual Cell Population),"[3]; ip 62 mg/kg/inj, bid days 1,4,7",.09
same,"L1210/6MP, 6TG, 6TGR cells surviving (% of day zero inoculum)","[3]; ip 62 mg/kg, bid day 1",15.9%
same,"L1210/6MP, 6TG, 6TGR cells surviving (% of day zero inoculum)","[3]; ip 62 mg/kg, qd day 1",15.9%
same,"L1210/6MP, 6TG, 6TGR cells surviving (% of day zero inoculum)","[3]; ip 62 mg/kg, tid day 1",15.9%
same,"L1210/6MP, 6TG, 6TGR cells surviving (% of day zero inoculum)","[3]; ip 104 mg/kg, qd day 1",54.5%
same,"L1210/6MP, 6TG, 6TGR cells surviving (% of day zero inoculum)","[3]; ip 173 mg/kg, qd day 1",4.6%
same,activity against B-16 melanoma,B-16 melanoma,No activity
same,L1210 cells surviving day 7 treatment (% of original inoculum),"L1210 cells; 22 mg/kg, bid days 1,3,5,7",594%
same,L1210 cells surviving day 7 treatment (% of original inoculum),"L1210 cells; 22 mg/kg, bid days 1,4,7",9211%
same,L1210 cells surviving day 7 treatment (% of original inoculum),"L1210 cells; 22 mg/kg, bid days 1-7",343%
same,L1210 cells surviving day 7 treatment (% of original inoculum),"L1210 cells; 37 mg/kg, bid days 1,3,5,7",17%
same,L1210 cells surviving day 7 treatment (% of original inoculum),"L1210 cells; 37 mg/kg, bid days 1,4,7",87%
same,L1210 cells surviving day 7 treatment (% of original inoculum),"L1210 cells; 37 mg/kg, bid days 1-7",22%
same,L1210 cells surviving day 7 treatment (% of original inoculum),"L1210 cells; 37 mg/kg, qd days 1,3,5,7",3077%
same,L1210 cells surviving day 7 treatment (% of original inoculum),"L1210 cells; 37 mg/kg, qd days 1,4,7",15936%
same,L1210 cells surviving day 7 treatment (% of original inoculum),"L1210 cells; 37 mg/kg, qd days 1-7",115%
same,L1210 cells surviving day 7 treatment (% of original inoculum),"L1210 cells; 62 mg/kg, bid days 1,3,5,7",0.3%
same,L1210 cells surviving day 7 treatment (% of original inoculum),"L1210 cells; 62 mg/kg, bid days 1,4,7",5.6%
same,L1210 cells surviving day 7 treatment (% of original inoculum),"L1210 cells; 62 mg/kg, qd days 1,3,5,7",50%
same,L1210 cells surviving day 7 treatment (% of original inoculum),"L1210 cells; 62 mg/kg, qd days 1,4,7",594%
same,L1210 cells surviving treatment (% of original inoculum),"L1210 cells; 62 mg/kg, qd days 1-7",13%
same,L1210 cells surviving treatment (% of original inoculum),"L1210 cells; 104 mg/kg, qd days 1,3,5,7",17%
